In US20090269409A1, “PHARMACEUTICAL COMPOSITIONS COMPRISING ESZOPICLONE” (priority 2008, published 2009):
≈ marks a conversion by molar mass, not a printed value. Where two headings read alike, the source gives them in different places.

Key:
[1] = Saturated solubility of eszopiclone in various solvents (shake flask, HPLC); format: physicochemical; conditions: thermodynamic from solid, room temperature
Procedure: 1) 100 mL of the solvent was placed into a 250 mL volumetric flask.
2) 10 mg of eszopiclone was added to the flask.
3) The flask contents were mixed for 24 hours using a rotary shaker to dissolve the eszopiclone completely.
4) Eszopiclone was added at room temperature to the clear solution of 3) in small amounts (up to about 100 mg) until undissolved eszopiclone was noted after shaking.
5) The flask was subjected to shaking for an additional 24 hours.
6) Presence of insoluble eszopiclone was checked and the pH of the solution was recorded.
7) A portion of step 6) solution was subjected to centrifugation until a clear solution was obtained, and/or was filtered through an ASTM #40 mesh sieve.
8) Content of the drug substance was determined using HPLC, comparing with a standard solution prepared preferably in the same solvent.
9) Amount of the drug substance dissolved was calculated as a percentage (weight/volume): […]
The actual amount of drug substance dissolved in mg is:
The solubility of the drug substance in mg/ml in the solvent medium tested is: S=m÷100.
Saturated solubility was determined in solvents as described below.

[2] = cited from earlier work
[3] = Excipient compatibility and stability study of eszopiclone/excipient mixtures (impurity analysis before and after storage); format: physicochemical
Procedure: 1) Eszopiclone and excipient in the stated ratios were mixed well and sifted through an ASTM #40 mesh sieve.
2) The mixture was placed into 20 mL amber glass vials and stored under conditions of 40° C. and 75% relative humidity (RH), or at 50° C., for 1 month. Impurity analyses were performed before and after storage, and values in the table below are percentages of the initial eszopiclone content.

[4] = Observed susceptibility of eszopiclone to degradation; format: physicochemical; conditions: with significant increase in the 5-chloro-2-aminopyridine content
[5] = 1 Month, 40° C./75% RH, amber glass vials
[6] = 1 Month, 50° C., amber glass vials

## CN1CCN(C(=O)O[C@H]2c3nccnc3C(=O)N2c2ccc(Cl)cn2)CC1 [Eszopiclone, (+)-(5S)-6-(5-chloropyridin-2-yl)-7-oxo-6,7-dihydro-[3,4-b]pyrazin-5-yl-4-methylpiperazine-1-carboxylate]
[1]; aqueous buffer, Acetate buffer (pH 4.5)
  solubility at 24 h: 11600 µg/mL (≈ 29.9 mM)
[1]; aqueous buffer, Phosphate buffer (pH 6.8)
  solubility at 24 h: 680 µg/mL (≈ 1.75 mM)
[1]; aqueous buffer, Phosphate buffer (pH 7.5)
  solubility at 24 h: 330 µg/mL (≈ 0.849 mM)
[1]; aqueous with cosolvent or surfactant or cyclodextrin, 0.5% Sodium lauryl sulphate in water
  solubility at 24 h: 1830 µg/mL (≈ 4.71 mM)
[1]; simulated gastric fluid, 0.01N HCl
  solubility at 24 h: 4180 µg/mL (≈ 10.8 mM)
[1]; simulated gastric fluid, 0.1N Hydrochloric acid (pH 1.2)
  solubility at 24 h: 39100 µg/mL (≈ 101 mM)
[1]; simulated gastric fluid, Acid buffer (pH 1), potassium chloride/HCl
  solubility at 24 h: 23000 µg/mL (≈ 59.2 mM)
[1]; Simulated gastric fluid (pH 1.2)
  solubility at 24 h: 8180 µg/mL (≈ 21 mM)
[1]; Water
  solubility at 24 h: 300 µg/mL (≈ 0.772 mM)
[2]; in ethanol
  Solubility (descriptive): slightly soluble
[2]; in phosphate buffer of pH 3.2
  Solubility (descriptive): soluble
[2]; in water
  Solubility (descriptive): very slightly soluble
[3]; [5]
  Imp (5-chloro-2-aminopyridine): 0.47 percentages of the initial eszopiclone content
  T.I. (Total impurities): 0.33 percentages of the initial eszopiclone content
[3]; [6]
  Imp (5-chloro-2-aminopyridine): 0.35 percentages of the initial eszopiclone content
  T.I. (Total impurities): 0.5 percentages of the initial eszopiclone content
[3]; Initial
  Imp (5-chloro-2-aminopyridine): 0.01 percentages of the initial eszopiclone content
  T.I. (Total impurities): 0.02 percentages of the initial eszopiclone content
[4]
  Susceptibility to oxidative degradation (including by atmospheric oxygen) and acid hydrolysis: highly susceptible
